Source: publication PMC4990249, “Mitochondrial Probe Methyltriphenylphosphonium (TPMP) Inhibits the Krebs Cycle Enzyme 2-Oxoglutarate Dehydrogenase” (PLoS ONE, 2016)

Experiments:
[1] = target: T1, 2-oxoglutarate dehydrogenase complex (OGDHC) (Rattus norvegicus, UniProt Q01205+Q5XI78+Q6P6R2); assay: spectrophotometric OGDHC activity (A340) at […] compound in muscle homogenate; format: cell-based; set-up: gene Ogdh; native complex in rat skeletal muscle homogenate enriched in mitochondrial fraction; with E2 and E3 components of the complex; conditions: read-out: % of control activity at 1 mM
T1 sequence (Q5XI78 41-1023): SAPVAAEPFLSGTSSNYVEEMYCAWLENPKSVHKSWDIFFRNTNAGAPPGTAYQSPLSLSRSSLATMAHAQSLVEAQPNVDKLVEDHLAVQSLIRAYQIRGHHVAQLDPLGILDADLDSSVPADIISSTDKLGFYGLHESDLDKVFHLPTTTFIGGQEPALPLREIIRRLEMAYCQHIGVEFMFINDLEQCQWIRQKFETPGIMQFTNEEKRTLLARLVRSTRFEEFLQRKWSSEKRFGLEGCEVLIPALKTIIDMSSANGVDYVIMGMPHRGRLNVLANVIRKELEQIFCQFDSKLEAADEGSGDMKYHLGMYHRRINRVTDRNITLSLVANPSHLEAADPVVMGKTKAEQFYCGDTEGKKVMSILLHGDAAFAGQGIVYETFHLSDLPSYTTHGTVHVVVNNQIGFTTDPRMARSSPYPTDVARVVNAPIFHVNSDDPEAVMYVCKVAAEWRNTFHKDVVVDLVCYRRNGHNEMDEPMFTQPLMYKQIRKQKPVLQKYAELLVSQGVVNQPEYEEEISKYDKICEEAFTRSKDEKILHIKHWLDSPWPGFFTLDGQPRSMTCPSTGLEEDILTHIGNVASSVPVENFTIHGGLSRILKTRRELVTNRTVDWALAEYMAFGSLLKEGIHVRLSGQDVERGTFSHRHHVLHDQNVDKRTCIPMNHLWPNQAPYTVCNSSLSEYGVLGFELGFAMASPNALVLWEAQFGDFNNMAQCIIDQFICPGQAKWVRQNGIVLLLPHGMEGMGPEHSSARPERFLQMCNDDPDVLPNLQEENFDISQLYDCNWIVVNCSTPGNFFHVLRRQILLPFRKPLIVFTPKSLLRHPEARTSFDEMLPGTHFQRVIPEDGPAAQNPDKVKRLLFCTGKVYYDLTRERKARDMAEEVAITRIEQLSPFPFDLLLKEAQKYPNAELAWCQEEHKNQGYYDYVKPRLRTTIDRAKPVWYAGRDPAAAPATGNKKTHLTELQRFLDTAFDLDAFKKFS
T1 sequence (Q01205 69-454): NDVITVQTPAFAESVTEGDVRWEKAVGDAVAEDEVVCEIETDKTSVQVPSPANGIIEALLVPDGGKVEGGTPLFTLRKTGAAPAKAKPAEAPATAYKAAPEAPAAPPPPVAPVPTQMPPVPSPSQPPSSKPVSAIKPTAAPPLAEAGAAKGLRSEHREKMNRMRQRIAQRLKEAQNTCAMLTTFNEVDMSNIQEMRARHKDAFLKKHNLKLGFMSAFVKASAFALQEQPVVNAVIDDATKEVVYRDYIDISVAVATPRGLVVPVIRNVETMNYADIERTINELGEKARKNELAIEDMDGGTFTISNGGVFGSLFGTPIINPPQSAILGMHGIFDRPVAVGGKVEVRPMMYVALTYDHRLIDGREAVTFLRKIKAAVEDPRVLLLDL
T1 sequence (Q6P6R2 36-509): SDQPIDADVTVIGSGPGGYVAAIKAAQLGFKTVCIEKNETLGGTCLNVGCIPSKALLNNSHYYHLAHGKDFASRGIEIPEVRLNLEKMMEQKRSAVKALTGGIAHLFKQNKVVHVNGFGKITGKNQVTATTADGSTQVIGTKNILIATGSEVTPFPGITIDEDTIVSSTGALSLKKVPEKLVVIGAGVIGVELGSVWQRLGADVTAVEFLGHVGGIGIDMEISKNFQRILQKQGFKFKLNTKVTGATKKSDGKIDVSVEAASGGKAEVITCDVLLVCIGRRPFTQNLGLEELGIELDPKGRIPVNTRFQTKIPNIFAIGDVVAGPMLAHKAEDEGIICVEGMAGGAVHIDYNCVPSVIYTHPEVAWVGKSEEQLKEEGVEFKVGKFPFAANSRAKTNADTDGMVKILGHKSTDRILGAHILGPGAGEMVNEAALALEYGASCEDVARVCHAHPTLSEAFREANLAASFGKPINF

[2] = target: T1, 2-oxoglutarate dehydrogenase complex (OGDHC); assay: biochemical; set-up: gene Ogdh
[3] = target: T2, 2-oxoglutarate dehydrogenase complex (OGDHC) (Sus scrofa, UniProt K9IVI1+P09623+Q9N0F1); assay: Michaelis-Menten kinetics of purified complex, NADH absorbance at […] nm, […] TPMP; format: biochemical
T2 construct: gene OGDH; purified OGDHC enzyme (Sigma K1502), intact complex; with E2 component (dihydrolipoyl transsuccinylase) and E3 component (dihydrolipoyl dehydrogenase) of the complex
T2 sequence (K9IVI1 41-1023): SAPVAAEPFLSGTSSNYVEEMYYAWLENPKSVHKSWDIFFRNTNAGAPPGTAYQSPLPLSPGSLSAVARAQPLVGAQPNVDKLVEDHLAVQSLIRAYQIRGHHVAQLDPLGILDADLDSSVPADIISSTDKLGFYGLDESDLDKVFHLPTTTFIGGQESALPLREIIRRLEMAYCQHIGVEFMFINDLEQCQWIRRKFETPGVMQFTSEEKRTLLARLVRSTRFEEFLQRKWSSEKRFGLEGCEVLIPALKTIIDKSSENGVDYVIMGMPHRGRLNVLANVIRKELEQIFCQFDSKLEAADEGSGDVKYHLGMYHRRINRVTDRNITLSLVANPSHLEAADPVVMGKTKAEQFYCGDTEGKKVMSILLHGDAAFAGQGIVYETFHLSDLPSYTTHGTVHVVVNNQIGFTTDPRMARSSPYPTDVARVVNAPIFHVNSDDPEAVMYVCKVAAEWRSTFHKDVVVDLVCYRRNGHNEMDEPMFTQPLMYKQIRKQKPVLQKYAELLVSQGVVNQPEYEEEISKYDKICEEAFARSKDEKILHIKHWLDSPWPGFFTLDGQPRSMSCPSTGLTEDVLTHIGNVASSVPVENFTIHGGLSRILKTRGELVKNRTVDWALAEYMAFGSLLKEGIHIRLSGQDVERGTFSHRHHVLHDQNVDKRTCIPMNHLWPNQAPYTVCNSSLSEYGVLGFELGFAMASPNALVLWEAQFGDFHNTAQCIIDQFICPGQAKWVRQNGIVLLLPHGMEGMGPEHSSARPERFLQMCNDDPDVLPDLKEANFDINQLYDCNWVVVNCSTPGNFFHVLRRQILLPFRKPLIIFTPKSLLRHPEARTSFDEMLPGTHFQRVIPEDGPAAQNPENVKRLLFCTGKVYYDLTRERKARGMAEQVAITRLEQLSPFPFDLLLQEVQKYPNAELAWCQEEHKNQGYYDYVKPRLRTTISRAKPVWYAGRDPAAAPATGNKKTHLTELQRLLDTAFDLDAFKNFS
T2 sequence (Q9N0F1 69-455): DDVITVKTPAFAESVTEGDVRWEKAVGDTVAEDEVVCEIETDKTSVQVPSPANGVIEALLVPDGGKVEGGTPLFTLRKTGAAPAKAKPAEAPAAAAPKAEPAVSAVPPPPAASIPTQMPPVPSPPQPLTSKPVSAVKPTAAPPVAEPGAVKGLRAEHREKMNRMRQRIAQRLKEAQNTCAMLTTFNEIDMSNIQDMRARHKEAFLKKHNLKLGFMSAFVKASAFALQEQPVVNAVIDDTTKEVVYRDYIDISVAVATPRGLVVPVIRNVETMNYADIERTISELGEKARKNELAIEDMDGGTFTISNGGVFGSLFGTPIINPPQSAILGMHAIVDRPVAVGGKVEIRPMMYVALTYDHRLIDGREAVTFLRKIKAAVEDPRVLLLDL
T2 sequence (P09623 36-509): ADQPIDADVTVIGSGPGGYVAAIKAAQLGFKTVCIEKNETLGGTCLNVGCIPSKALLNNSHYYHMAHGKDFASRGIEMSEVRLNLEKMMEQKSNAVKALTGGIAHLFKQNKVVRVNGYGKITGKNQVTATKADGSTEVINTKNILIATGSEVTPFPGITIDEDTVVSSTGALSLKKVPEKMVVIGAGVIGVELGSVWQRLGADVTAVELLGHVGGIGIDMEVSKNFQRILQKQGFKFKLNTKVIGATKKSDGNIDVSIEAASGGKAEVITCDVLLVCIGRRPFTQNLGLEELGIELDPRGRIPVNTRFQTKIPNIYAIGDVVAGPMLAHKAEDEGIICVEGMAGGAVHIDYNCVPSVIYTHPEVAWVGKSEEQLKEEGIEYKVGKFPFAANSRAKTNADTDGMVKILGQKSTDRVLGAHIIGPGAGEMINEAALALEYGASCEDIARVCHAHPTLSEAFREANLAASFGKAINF

| remaining activity at 1000 µM [1] [%] | Compound | IC50 [2] [mM] | Michaelis-Menten kinetics of purified complex, NADH absorbance at 340 nm, 0-5 mM [3] |
| --- | --- | --- | --- |
| 60.7 | CCC[P+](c1ccccc1)(c1ccccc1)c1ccccc1 [Propyl, propyltriphenylphosphonium] | – | – |
| 15.9 | CCCCC[P+](c1ccccc1)(c1ccccc1)c1ccccc1 [Pentyl, pentyltriphenylphosphonium] | – | – |
| – | C[P+](c1ccccc1)(c1ccccc1)c1ccccc1 [TPMP, Methyltriphenylphosphonium] | 3.93 | The pattern of decreasing Vmax and increasing Km fits in a mixed-inhibition model. |
